The results in this text go back to patent US3995061A, “Pharmaceutical composition and method of using the same” (Chugai Seiyaku Kabushiki Kaisha, priority 1974, dated 1976).

The test system of data set [1] is Cholesterol in serum. In words: Serum cholesterol lowering activity in rats on high-fat feed, single oral dose. Conditions: rat, 75 mg/kg oral, 6 hours after administration. It counts as in vivo, Wister-Imamich strain male rats. The source says: The cholesterol lowering activity of the ascochlorin derivatives of this invention was observed by the use of Wister-Imamich strain male rats weighing 230 ± 30 g which had been bred with the use of high-fat feed comprising 1000 g of powdery chow CLEA CE-2 (sold by NIHON CLEA KABUSHIKI KAISHA) admixed with 10 g of cholesterol, 95 g of hydrogenated coconut oil, 2 g of cholic acid, 150 g of milk casein and 671 g of sucrose.
The rats were divided into groups of five members each, and orally administered with a different ascochlorin derivative as a suspension in gum arabic aqueous solution in a dose of 75 mg/kg.body weight. The rats were kept from eating food, and 6 hours after the administration, the blood of each rat was sampled from its heart. The total amount of cholesterol in serum was determined by a modified Zurkowski method (Clinical Chemistry, 10, 451, 1964) with the use of a colorimeter for blood analysis (sold by KYOTO DAIICHI KAGAKU).

The test system of data set [2] is blood platelet. In words: Aggregation inhibition activity of blood platelet (ADP-induced, platelet rich plasma of orally dosed rats). It counts as in vivo, Wister-Imamich strain male rats. Conditions: rat, 20 mg/kg oral, 6 hours; adenosine-5'-diphosphate 10^-5 M in platelet rich plasma. How it is done: In this Example Wister-Imamich strain male rats weighing 230 ± 30 g which had been bred with the use of a commercial chow, CLEA CE-2 were used.
The rats were divided into groups of five members each, and orally administered with a different ascochlorin derivative as a suspension in 2% gum arabic aqueous solution in a dose of 20 mg/kg.body weight. Six hours after the administration, the blood of each rat was sampled from the heart and after the addition of citric acid, the blood sample was centrifuged at 1,500 r.p.m. for 10 minutes to obtain platelet rich plasma. The anti-aggregation effect when the concentration of adenosine-5'-diphosphatein the platelet rich plasma is ultimately 10^^-5 M is shown in Table II.
As positive controls, ascochlorin, ethyl-α-(p-chlorophenoxy) isobutylate and acetyl salicyclic acid were used. The aggregation inhibition ratio was evaluated in percent by comparing the increase of transmission rate caused by the addition of adenosin-5'-diphosphate to platelet rich plasma of the control group (no medication) with that caused on the groups administered with an ascochlorin derivative which is calculated for 100.

A short description of data set [3]: Acute toxicity, mouse. As to conditions: in vivo, ip, male. The source says: (§1) Acute toxicity of the ascochlorin derivatives was observed by the use of Wister-Imamichi strain male rats weighing 230 ± 30 g and ddY strain male and female mice (5 weeks old) weighing 20 ±3 g which were divided into groups of 10 members each. Japanese native male rabbits weighing 2 kg ± 300 g which were divided into groups of five members each were also used. The test animals were orally or intraperitoneally administered with a different ascochlorin derivative as a suspension in 5% gum arabic aqueous solution, and the toxicity was compared with that of control in which ascochlorin was used.

A short description of data set [4]: Acute toxicity, rat. As to conditions: in vivo, ip, male.
Description: as §1

The test system of data set [5] is Serum Lipid. In words: Hypolipidemic activity: change in level of serum lipid, 30 days, high-fat feed. Format: in vivo, Wister strain rats. Conditions: rat.
The subject of data set [6] is Lipid in liver and aorta. In words: Hypolipidemic activity: change of lipid level in organs and aorta abdominalis, 30 days, high-fat feed. Conditions: rat, 45.0 mg/kg oral. Format: in vivo, Wister strain rats. How it is done:
Wister strain rats weighing 150 ± 20 g were divided into groups of 10 members each and bred with high-fat feed, the same as that used in Example 1. The rats were orally administered ascochlorin, 4-O-methylascochlorin or ethyl-α-(p-chlorophenoxy) isobutylate in a predetermined dose every morning for 30 days. Six hours after the last administration, liver and aorta of each rat were taken out and lipid level in the organs of each of the rats were determined. Lipid present in the liver and aorta was extracted with methanol-chloroform (1:1) by allowing it to stand overnight and the extract was assayed as to lipid level.

Setting [7] is: 45.0 mg/kg oral, average ± standard error.

Regarding `CC(/C=C/C1(C)C(C)CCC(=O)C1C)=C\Cc1c(O)c(C=O)c(C)c(Cl)c1OCC(C)C` (stereo not shown) [4-O-isobutylascochlorin], in data set [1], the Cholesterol in serum was 88.5 mg/dL. The “Aggregation Inhibition Ratio” value in data set [2] was 48.8%.
For `CC(/C=C/C1(C)C(C)CCC(=O)C1C)=C\Cc1c(O)c(C=O)c(C)c(Cl)c1OC(C)(C)C` (stereo not shown) [4-O-tert-butylascochlorin] the same measures were 82.7 mg/dL and 60.5%.
In turn, `CCCCOc1c(Cl)c(C)c(C=O)c(O)c1C/C=C(C)/C=C/C1(C)C(C)CCC(=O)C1C` (stereo not shown) [4-O-n-butylascochlorin] returned a Cholesterol in serum in data set [1] of 86.9 mg/dL. In addition, the “Aggregation Inhibition Ratio” value in data set [2] was found to be 53.7%.
For `CC(/C=C/C1(C)C(C)CCC(=O)C1C)=C\Cc1c(O)c(C=O)c(C)c(Cl)c1OC(C)C` (stereo not shown) [4-O-isopropylascochlorin] the same measures were 85.6 mg/dL and 57.2%.
On to `CC(=O)Oc1ccccc1C(=O)O` [acetyl salicylic acid, reference compound], for which the “Aggregation Inhibition Ratio” value in data set [2] turned out to be 73.1%.
`CCC(C)Oc1c(Cl)c(C)c(C=O)c(O)c1C/C=C(C)/C=C/C1(C)C(C)CCC(=O)C1C` (stereo not shown) [4-O-sec-butylascochlorin] yielded a Cholesterol in serum in data set [1] of 89.1 mg/dL. Also, in data set [2], the “Aggregation Inhibition Ratio” value worked out at 51.1%.
In data set [1], `CCOc1c(Cl)c(C)c(C=O)c(O)c1C/C=C(C)/C=C/C1(C)C(C)CCC(=O)C1C` (stereo not shown) [4-O-ethylascochlorin] displayed a Cholesterol in serum of 82.2 mg/dL. In data set [2], the “Aggregation Inhibition Ratio” value was 55.3%. The values for the LD50 in data set [3] and in data set [4] were 5600 mg/kg and 5100 mg/kg, respectively.
Regarding `CCOC(=O)C(C)(C)Oc1ccc(Cl)cc1` [ethyl-α-(p-chlorophenoxy) isobutylate, reference compound], in data set [1], the Cholesterol in serum turned out to be 103.8 mg/dL. For the same compound, the “Aggregation Inhibition Ratio” value in data set [2] is listed as 0%. For the same compound, in data set [5] (45.0 mg/kg oral), the “Serum Cholesterol, increasing or reducing ratio based on the control” value was “+7.9”; the “Serum Free fatty acid, increasing or reducing ratio based on the control” value was -10.1; the “Serum Phospholipid, increasing or reducing ratio based on the control” value is listed as -0.7; the “Serum Triglyceride, increasing or reducing ratio based on the control” value is reported as -9.2. For the same compound, the “Serum β-Lipoprotein, increasing or reducing ratio based on the control” value in data set [5] (45.0 mg/kg oral) is on record as -3.7. In data set [5] (setting [7]), the “Serum Cholesterol” value was 115.3 ± 5.5 mg/dL, the “Serum Free fatty acid” value turned out to be 45.2±1.6 μ eq./dl, the “Serum Phospholipid” value stood at 135.9 ± 13.6 mg/dL and the “Serum Triglyceride” value was found to be 72.1 ± 4.4 mg/dL. In addition, the “Serum β-Lipoprotein” value in data set [5] (setting [7]) came out at 738 ± 46 mg/dL. Also, in data set [5] (oral, groups of Tables IV and V), the “lowering of lipids in serum, liver and aorta (such effects)” value is listed as “such effects were not observed”. Further, in data set [6], the “Cholesterol in Liver, increasing or reducing ratio based on the control” value was “+20.6”; the “Cholesterol in Tunica intima of aorta abdominalis, increasing or reducing ratio based on the control” value is -14.7; the “Phospholipid in Liver, increasing or reducing ratio based on the control” value was “+13.2”; the “Triglyceride in Liver, increasing or reducing ratio based on the control” value is reported as “+10.7”. Besides, in data set [6] (average ± standard error), the “Cholesterol in Liver” value worked out at 41.0 ± 4.5 mg/g, the “Phospholipid in Liver” value came out at 79.5 ± 3.1 mg/g and the “Triglyceride in Liver” value stood at 24.2 ± 2.2 mg/g.
For the compound `CCCOc1c(Cl)c(C)c(C=O)c(O)c1C/C=C(C)/C=C/C1(C)C(C)CCC(=O)C1C` (stereo not shown) [4-O-n-propylascochlorin], in data set [1], the Cholesterol in serum was determined as 84.3 mg/dL. Besides, the “Aggregation Inhibition Ratio” value in data set [2] was found to be 56.5%.
